This note sets out measurements from ChEMBL document CHEMBL1137067, “Alpha-1-C-alkyl-1-deoxynojirimycin derivatives as potent and selective inhibitors of intestinal isomaltase: remarkable effect of the alkyl chain length on glycosidase inhibitory profile” (Bioorg Med Chem Lett, 2004).

The term IC50 denotes the concentration at which inhibition is half-maximal. Higher therefore signals a need for much substance. In general, inhibition refers to the drop in the measured response relative to a control, in per cent. Low readings indicate a response near the control, high ones a response far below the control.

Assay [1] deals with T1, Sucrase-isomaltase, intestinal (Rattus norvegicus, UniProt P23739). Nature of the assay: Inhibition of rat intestinal isomaltase using disaccharide.
In assay [2] the target is Beta-glucosidase A (Caldicellulosiruptor saccharolyticus) (UniProt P10482). Put plainly: Inhibitory activity against beta-Glucosidase from Caldocellum saccharolyticum at 1000 uM.
Assay [3] addresses T1, Sucrase-isomaltase, intestinal. Put plainly: Inhibition of rat intestinal maltase using disaccharide.
For another assay, the system named is Saccharomyces cerevisiae. Nature of the assay: Inhibitory activity against alpha-Glucosidase from Yeast at 1000 uM.
The next assay concerns the target T2, Alpha-glucosidase (Oryza sativa Japonica Group, UniProt Q9LGC6).
T2 sequence (Q9LGC6 whole entry): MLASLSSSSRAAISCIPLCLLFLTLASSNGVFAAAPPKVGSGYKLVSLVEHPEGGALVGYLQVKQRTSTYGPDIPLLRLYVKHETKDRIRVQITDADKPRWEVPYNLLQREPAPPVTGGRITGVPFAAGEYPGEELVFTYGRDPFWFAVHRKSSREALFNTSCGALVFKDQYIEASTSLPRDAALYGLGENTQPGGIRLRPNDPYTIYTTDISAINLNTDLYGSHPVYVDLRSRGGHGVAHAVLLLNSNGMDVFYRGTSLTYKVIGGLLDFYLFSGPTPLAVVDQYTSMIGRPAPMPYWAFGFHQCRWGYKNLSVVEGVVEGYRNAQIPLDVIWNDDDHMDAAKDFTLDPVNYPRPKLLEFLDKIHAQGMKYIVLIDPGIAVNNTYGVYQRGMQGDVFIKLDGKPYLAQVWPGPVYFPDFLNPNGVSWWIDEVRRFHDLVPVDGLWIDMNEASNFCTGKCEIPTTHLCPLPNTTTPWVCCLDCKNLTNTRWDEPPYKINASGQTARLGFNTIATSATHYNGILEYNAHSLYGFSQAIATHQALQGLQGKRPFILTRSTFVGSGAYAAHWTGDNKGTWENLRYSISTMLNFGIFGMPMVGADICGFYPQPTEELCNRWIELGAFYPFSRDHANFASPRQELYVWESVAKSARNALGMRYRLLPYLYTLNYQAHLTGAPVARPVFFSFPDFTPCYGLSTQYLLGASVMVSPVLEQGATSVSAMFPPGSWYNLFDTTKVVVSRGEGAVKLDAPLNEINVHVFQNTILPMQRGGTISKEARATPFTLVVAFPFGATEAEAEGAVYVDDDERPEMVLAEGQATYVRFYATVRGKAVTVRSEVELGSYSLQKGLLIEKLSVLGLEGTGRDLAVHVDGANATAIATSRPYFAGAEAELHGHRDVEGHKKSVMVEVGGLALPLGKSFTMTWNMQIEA
Nature of the assay: Inhibitory activity against alpha-Glucosidase from rice.

Assay [4] addresses T1, Sucrase-isomaltase, intestinal. Put plainly: Inhibition of rat intestinal sucrase using disaccharide.
The target in a further assay is Beta-glucosidase A (Caldicellulosiruptor saccharolyticus, UniProt P10482). Nature of the assay: Inhibitory activity against beta-Glucosidase from Caldocellum saccharolyticum.
Assay [5] is described as follows: Inhibitory activity against alpha-Glucosidase from Yeast. More on the design: species or system Saccharomyces cerevisiae.

Each structure is given as a SMILES string.

T1 sequence (P23739 1-1013 limits assumed): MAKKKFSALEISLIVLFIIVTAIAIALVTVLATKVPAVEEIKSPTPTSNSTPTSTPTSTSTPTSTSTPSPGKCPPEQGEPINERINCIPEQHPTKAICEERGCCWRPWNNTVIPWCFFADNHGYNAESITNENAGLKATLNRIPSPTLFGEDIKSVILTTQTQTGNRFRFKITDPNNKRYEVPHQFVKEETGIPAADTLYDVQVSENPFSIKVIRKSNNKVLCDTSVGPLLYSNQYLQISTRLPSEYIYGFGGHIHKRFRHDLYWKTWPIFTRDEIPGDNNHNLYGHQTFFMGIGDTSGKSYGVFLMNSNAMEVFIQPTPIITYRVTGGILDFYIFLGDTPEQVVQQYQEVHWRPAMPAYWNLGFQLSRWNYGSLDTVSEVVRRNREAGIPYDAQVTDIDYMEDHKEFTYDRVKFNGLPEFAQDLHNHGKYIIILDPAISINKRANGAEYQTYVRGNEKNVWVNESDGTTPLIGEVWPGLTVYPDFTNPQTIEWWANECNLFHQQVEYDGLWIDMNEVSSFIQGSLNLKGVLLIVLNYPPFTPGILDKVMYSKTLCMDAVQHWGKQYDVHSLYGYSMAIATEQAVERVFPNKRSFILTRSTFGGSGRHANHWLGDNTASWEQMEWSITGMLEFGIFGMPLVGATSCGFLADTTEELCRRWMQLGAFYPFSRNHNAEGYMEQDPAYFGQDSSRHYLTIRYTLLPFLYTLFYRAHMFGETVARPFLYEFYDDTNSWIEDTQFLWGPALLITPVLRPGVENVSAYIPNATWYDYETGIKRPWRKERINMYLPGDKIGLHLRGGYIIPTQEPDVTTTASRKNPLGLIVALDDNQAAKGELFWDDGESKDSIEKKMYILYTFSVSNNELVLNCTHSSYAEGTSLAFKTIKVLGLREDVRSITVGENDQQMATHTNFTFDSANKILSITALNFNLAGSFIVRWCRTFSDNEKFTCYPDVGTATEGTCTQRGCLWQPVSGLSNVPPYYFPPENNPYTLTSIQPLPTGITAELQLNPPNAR
T1 sequence (P23739 1014-1841 limits assumed): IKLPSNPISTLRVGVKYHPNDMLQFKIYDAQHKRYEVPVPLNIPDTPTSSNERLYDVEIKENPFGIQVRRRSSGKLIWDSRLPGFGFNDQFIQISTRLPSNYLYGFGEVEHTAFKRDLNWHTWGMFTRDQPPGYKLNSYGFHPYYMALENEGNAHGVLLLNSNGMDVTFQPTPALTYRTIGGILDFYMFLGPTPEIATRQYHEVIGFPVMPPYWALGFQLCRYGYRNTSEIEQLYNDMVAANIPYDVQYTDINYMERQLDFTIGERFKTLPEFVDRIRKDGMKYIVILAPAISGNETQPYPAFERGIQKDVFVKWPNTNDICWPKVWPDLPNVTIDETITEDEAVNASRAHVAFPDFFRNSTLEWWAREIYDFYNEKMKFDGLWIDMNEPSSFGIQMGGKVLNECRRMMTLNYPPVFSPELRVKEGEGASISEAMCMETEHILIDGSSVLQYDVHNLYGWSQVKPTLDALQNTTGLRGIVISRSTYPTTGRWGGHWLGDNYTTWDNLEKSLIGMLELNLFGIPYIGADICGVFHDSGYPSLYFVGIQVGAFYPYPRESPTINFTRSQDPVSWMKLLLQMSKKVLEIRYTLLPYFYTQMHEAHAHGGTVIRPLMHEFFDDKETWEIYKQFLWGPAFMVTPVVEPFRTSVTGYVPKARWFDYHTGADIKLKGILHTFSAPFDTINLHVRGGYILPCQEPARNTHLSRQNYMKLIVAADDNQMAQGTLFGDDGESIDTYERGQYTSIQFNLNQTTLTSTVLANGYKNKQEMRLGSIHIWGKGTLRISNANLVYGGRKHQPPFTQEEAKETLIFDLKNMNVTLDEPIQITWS
Chain of Beta-glucosidase A (P10482 whole entry): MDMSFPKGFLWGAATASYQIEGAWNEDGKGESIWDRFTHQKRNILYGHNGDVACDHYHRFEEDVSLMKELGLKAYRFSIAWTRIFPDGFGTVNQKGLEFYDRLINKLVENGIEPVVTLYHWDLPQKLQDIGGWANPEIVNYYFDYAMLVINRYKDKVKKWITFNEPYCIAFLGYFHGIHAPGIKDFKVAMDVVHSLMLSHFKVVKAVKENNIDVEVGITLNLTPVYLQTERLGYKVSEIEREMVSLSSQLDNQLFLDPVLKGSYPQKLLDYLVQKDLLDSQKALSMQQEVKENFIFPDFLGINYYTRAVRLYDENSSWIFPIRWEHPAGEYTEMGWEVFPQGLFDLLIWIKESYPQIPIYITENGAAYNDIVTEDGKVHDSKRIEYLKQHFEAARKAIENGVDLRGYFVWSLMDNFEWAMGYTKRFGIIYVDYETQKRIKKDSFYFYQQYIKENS
Chain of Beta-glucosidase A (Caldicellulosiruptor saccharolyticus) (P10482 whole entry): as above

Turning to `CCCC[C@@H]1N[C@@H](CO)[C@@H](O)[C@H](O)[C@@H]1O`, the IC50 worked out at 115000 nM in assay [1], 210000 nM in assay [3], 61000 nM against Alpha-glucosidase and 155000 nM in assay [4]. For the same compound, the inhibition (in assay [2]; in the assay with Saccharomyces cerevisiae) was < 50% throughout.
For the compound `CCCCCCCCCC1NC(CO)C(O)C(O)C1O` (stereo not given), the IC50 turned out to be 80000 nM on Beta-glucosidase A; 3.5 nM in assay [1]; 4000 nM in assay [3]; 1500 nM on Alpha-glucosidase; 2500 nM in assay [4]; 56000 nM in assay [5].
For the compound `CCCCN1C[C@H](O)[C@@H](O)[C@H](O)[C@H]1CO`, the inhibition (in assay [2]; in the assay on Saccharomyces cerevisiae) was < 50% each time. Also, the concentration for half-maximal inhibition (IC50) at Alpha-glucosidase amounted to 420 nM.
With `CCCCCCC1NC(CO)C(O)C(O)C1O` (stereo not given), the IC50 came to 310 nM in assay [1]; 3500 nM in assay [3]; 800 nM against Alpha-glucosidase; 1200 nM in assay [4]; 52000 nM in assay [5]. The inhibition in assay [2] was < 50%.
In the case of `CCCN1CC(O)C(O)C(O)C1CO` (stereo not given), the IC50 against Beta-glucosidase A worked out at 100000 nM; in assay [1], 1400 nM; in assay [3], 7000 nM; against Alpha-glucosidase, 2000 nM; in assay [4], 2000 nM. The inhibition in the assay on Saccharomyces cerevisiae is < 50%.
For the compound `CCCCCCN1CC(O)C(O)C(O)C1CO` (stereo not given), the IC50 on Beta-glucosidase A was determined as 450000 nM; in assay [1] it was 450 nM; in assay [3], 3700 nM; at Alpha-glucosidase, 700 nM; in assay [4] it was 450 nM. Further, the inhibition in the assay on Saccharomyces cerevisiae was < 50%.
Regarding `CCCC[C@H]1N[C@@H](CO)[C@@H](O)[C@H](O)[C@@H]1O`, the IC50 in assay [1] worked out at 150 nM; in assay [3], 12000 nM; against Alpha-glucosidase, 11000 nM; in assay [4], 3600 nM; in assay [5] it was 465000 nM. For the same compound, the inhibition in assay [2] was < 50%.
Consider `CCCCCCCCCN1CC(O)C(O)C(O)C1CO` (stereo not given), for which the IC50 in assay [3] came out at 1300 nM; against Alpha-glucosidase, 80 nM. In addition, in the assay with Saccharomyces cerevisiae, the inhibition is < 50%.
Consider `CCCCCCCCN1CC(O)C(O)C(O)C1CO` (stereo not given), for which the IC50 turned out to be 160000 nM against Beta-glucosidase A; 280 nM in assay [1]; 1500 nM in assay [3]; 80 nM on Alpha-glucosidase; 660 nM in assay [4]. In the assay with Saccharomyces cerevisiae, the inhibition was < 50%.
In the case of `OC[C@H]1NC[C@H](O)[C@@H](O)[C@@H]1O` [DUVOGLUSTAT], in assay [5], the IC50 is 190000 nM.
On to `CCCC1NC(CO)C(O)C(O)C1O` (stereo not given), for which the IC50 in assay [1] stood at 530 nM; in assay [3], 43000 nM; against Alpha-glucosidase, 15000 nM; in assay [4] it was 39000 nM; in assay [5] it was 630000 nM.
On to `CCCCCCCCC1NC(CO)C(O)C(O)C1O` (stereo not given), for which the IC50 came to 110000 nM on Beta-glucosidase A; 90 nM in assay [1]; 1900 nM in assay [3]; 590 nM against Alpha-glucosidase; 1500 nM in assay [4]; 25000 nM in assay [5].
